One data set relates to PI3K/mTOR pathway. In words: Clinical trial: IHC of PI3K/mTOR pathway markers in GBM tumor tissue. It is filed as in vivo, human. The protocol:
To evaluate pharmacodynamic effects in tumor tissue, immuno-histochemistry (IHC) was performed with phosphorylation-site specific antibodies against four PI3K/mTOR pathway components: Proline-Rich Akt Substrate of 40-kDa (PRAS40, threonine246), ribosomal protein S6 kinase 1 (S6K1, threonine 389), eukaryotic translation initiation factor 4E-binding protein 1 (4E-BP1, threonine 37/46), and S6 Ribosomal Protein (S6RP, serine 235/236) (FIG. 1D). For each marker staining of several thousand tumor cells was quantified and the staining intensity in the “on-treatment”-biopsy (Surgery 2) was compared with the staining intensity in the tumor sample collected from the same patient at diagnosis (Surgery 1). This “matched-pair” analysis included 19/21 evaluable patients (Table 3) who received at least one dose of study drug, had detectable phospho-S6RP in the pre-treatment sample (Surgery 1), and had tissue of sufficient quality collected on treatment (Surgery 2).
The design of the trial allowed comparison of the initial glioma (Surgery 1) in these patients to the recurrent glioma which was treated with drug before surgical resection (Surgery 2). Immunohistochemical staining (IHC) was performed on the samples and pathway inhibition was measured via pS6 Ser235/6, pS6K1 Thr389, p4E-BP1 Thr37/46, and pPRAS40 Thr246 (FIG. 1E, upper panel). Cellular proliferation was measured via Ki-67 IHC. […]
Immunohistochemical (IHC) staining of patient samples was performed on formalin-fixed paraffin-embedded (FFPE) tumor tissues collected at the initial surgery and recurrent tumor surgery. […] Immunoreactivity was detected using NovaRED Peroxidase Substrate kit (Vector Labs SK-4800) and sections were counterstained with hematoxylin.
To analyze pathway inhibition, three representative tumor images from each slide stained with phospho-proteins were taken, after determining the presence of tumor cells based on hematoxylin staining evaluation. […] The tumor to normal ratio was calculated by dividing the average of the tumor images by the average of the normal tissue image. […]

The next data set relates to TS543 cells. In words: TS543 subcutaneous tumor model in SCID mice. Particulars: 60 mg/kg/day, p=0.0139 vs vehicle. In kind it is in vivo, mouse. Here is the method:
To confirm the in vitro observations described above in vivo, one million TS543 cells were injected into the flank of a severe combined immune deficiency (SCID) mouse. Once tumors had formed, the mice were randomized into vehicle or 60 mg/kg/day SAR245409 treatment arms. Tumors were measured every three days. […] This reduction was statistically significant (unpaired t test with Welch's correction, p=0.0139).
For the S5472 and TS543 subcutaneous model, 10e6 cells were suspended in a 100 uL mixture of 50% growth media 50% Matrigel (BD 356237). SCID mice were injected subcutaneously in the flank, and once tumors had reached a measurable size, mice were randomized into treatment groups.

In data set [1] the test system is PI3K/mTOR pathway (pAkt Ser473, pS6). The data set can be described thus: S5472 subcutaneous tumors, pAkt and pS6 (IHC, Meso Scale). In kind it is in vivo, mouse. The protocol: The in vivo effects of SAR245409 treatment were examined on the S5472 PDGF-β driven line. One million S5472 cells were injected subcutaneously into SCID mice flanks. After measurable tumor formation, mice were randomized into vehicle, 60 mg/kg/day, or 120 mg/kg/every other day treatment groups, ten mice per group. […] Tumors were removed from one hour after the last dose of treatment for analysis. Sections were IHC stained for biomarkers of pathway inhibition pAkt Ser473 and pS6 Ser235/6. […] Portions of the tumor were lysed and pAkt Ser473 and pS6 Ser240/4 were measured using an electrochemiluminescent assay on the Meso Scale system (FIG. 19B).
pS6RP Ser240/4 (K150DFD-1) and pAkt Ser473/total Akt (K15100D-1) assays were purchased from MescoScale Discovery and performed as described by the kit on fresh cell lysates, or on lysed frozen tumor sections. Assays were read on the SECTOR™ SI2400 imager.

Data set [2] concerns PI3K/mTOR pathway (pS6 Ser235/6). In words: RCAS/tv-a PDGF-B-induced orthotopic glioma model, pS6 IHC. It is filed as in vivo, mouse. Particulars: 60 mg/kg/day, one hour after last dose.
Data set [3] can be described thus: Clinical trial: primary reason for discontinuation from study treatment. In kind it is in vivo, human. The source says: All 21 patients discontinued treatment prior to receiving 1 year of postsurgery treatment. Time to tumor progression (TTP) for all patients is presented FIG. 2A.
A short description of another data set: clinical. The conditions noted are these: human, in vivo, 90 mg.
[4] abbreviates: SAR409 50 mg twice daily (N = 8).
[5] abbreviates: SAR409 90 mg once daily (N = 7).

Structures are written as SMILES.

The values below come from US10632121B2, “Platelet-derived growth factor receptor mutations and compositions and methods relating thereto” (MEMORIAL SLOAN KETTERING CANCER CENTER, priority 2014, dated 2020).

What is called Cmax is the peak of the concentration-time curve. Regarding `CCn1c(=O)c(-c2cc[nH]n2)cc2c(C)nc(N)nc21` [SAR409, voxtalisib], the “tumor cell proliferation and all four PI3K/mTOR pathway markers in on-treatment biopsy” value in the data set with PI3K/mTOR pathway (patient #2021, Surgery 2) is reported as “decrease”. Besides, the “PI3K/mTOR pathway inhibition in tumor, Surgery 2 vs Surgery 1” value in the data set on PI3K/mTOR pathway (patients treated 10-28 days before surgery) is listed as “Inhibition of the PI3K/mTOR Pathway”. In addition, in the data set on TS543 cells, the “tumor growth (tumor volume)” value is “marked reduction in tumor growth”. In addition, the “pAkt Ser473 and pS6 Ser240/4 in tumor lysates (electrochemiluminescent assay)” value in data set [1] (60 mg/kg/day arm, p=0.0001 vs vehicle) is “significantly down”. Besides, the “pAkt Ser473 and pS6 Ser235/6 in tumor sections (IHC)” value in data set [1] (one hour after last dose, treated vs vehicle) is reported as “Notable inhibition of both markers”. The “PI3K/mTOR pathway biomarker (pS6 Ser235/6 IHC) in tumors” value was “reduced staining” in data set [2] and “reduced activation” in data set [2] (listed as SAR245409). The “Discontinuation: Adverse Event or SAE unrelated to disease progression” value in data set [3] (setting [4]) is given as 3 (37.5) n (%); in data set [3] (setting [5]), 2 (28.6) n (%). The “Discontinuation: Clinical disease progression per principal investigator” value is 0 n (%) in data set [3] (setting [4]) and 1 (14.3) n (%) in data set [3] (setting [5]). Also, the “Discontinuation: Disease progression per modified RANO” value in data set [3] (setting [4]) was 4 (50.0) n (%); in data set [3] (setting [5]) it was 4 (57.1) n (%). Besides, the Cmax at 3 h in “clinical” (median intratumoral Cmax concentration) was 170 nM; in the data set “clinical” (range of intratumoral Cmax concentration) it was 23.1 to 751 nM.
